Here are results for six compounds from publication PMC11627468, “Novel enzyme‐resistant pancreatic polypeptide analogs evoke pancreatic beta‐cell rest, enhance islet cell turnover, and inhibit food intake in mice” (Biofactors (Oxford, England), 2024).

Data set [1] relates to C57BL/6 mice. The data set can be described thus: Acute food intake in overnight fasted mice. Type of data set: in vivo. The procedure:
(§1) Acute in vivo studies were conducted in groups (n = 6) of 4‐month‐old male C57BL/6 mice (Envigo, Huntington, UK). All mice were maintained on standard rodent chow (10% fat, 30% protein, and 60% carbohydrate; Trouw Nutrition, Northwich, UK), and drinking water provided ad libitum. Mice were housed individually and kept in a temperature‐controlled environment (22 ± 2°C), with a 12‐h light/dark cycle. Experiments were carried out in accordance with the UK Animal Scientific Procedures Act 1986 as well as being approved by Ulster University Animal Ethics Review Committee (AWERB) committee and protected by the UK Home Office Animal project license number PPL2902, approved on April 26, 2021. Acute effects of test peptides on food intake were tested in overnight (16 h) fasted mice. Briefly, fasted mice were administered an intraperitoneal (i.p.) injection of saline vehicle (0.9% (w/v) NaCl) alone or in combination with test peptides (each at 25, 75, or 200 nmol/kg bw) and cumulative food intake measured at regular intervals, to assess the pharmacodynamic profile of the test peptides. For food intake studies, mice were provided with preweighed rodent maintenance diet in their food hopper at t = 0 min, which was then re‐weighed at each timepoint with all due care taken to account for any wastage or crumbling of the food pellets. In this regard, the investigator was present at all times during the 180‐min test period to ensure accuracy and consistency in all measurements. Furthermore, effects of PP or related peptides (25 nmol/kg bw) on glucose homeostasis and insulin secretion were evaluated in overnight fasted mice following i.p. injection of glucose alone (18 mmol/kg bw) or in combination with PP peptides (each at 25 nmol/kg bw).

Data set [2] relates to BRIN‐BD11 beta‐cells. The data set is described as follows: Beta‐cell proliferation (Ki‐67 staining). It counts as cell-based. The note with it: versus control cultures, n = 3. On the procedure: (§2) To assess the effects of PP and related peptides (10^−8 and 10^−6 M) on beta‐cell proliferation and apoptosis, BRIN‐BD11 beta‐cells were seeded onto sterilized, clear‐glass coverslips (16 mm diameter) and placed in 12‐well plates (Falcon Ltd) at a density of 40,000 cells per well and cultured for 18 h. Media control (11.1 mM glucose), GLP‐1 (10^−8 and 10^−6 M), and a cytokine cocktail mix (IL‐1β [100 U/mL], IFNγ [20 U/mL], TNFα [200 U/mL], Sigma Aldrich, UK) were employed as controls, as appropriate. Cells were then rinsed with PBS and fixed using 4% paraformaldehyde. After antigen retrieval with sodium citrate buffer at 95°C for 20 min, blocking was performed using 2% bovine serum albumin (BSA) for 45 min. For proliferation studies, the slips were then incubated at 37°C with rabbit anti‐Ki‐67 primary antibody (Abcam, ab15580), and subsequently with Alexa Fluor® 488 secondary antibody. Coverslips were mounted onto polylysine‐coated microscope slides using a 50:50 glycerol:PBS solution and stored at 4°C until required for analysis. To assess the ability of PP peptides to protect against cytokine‐induced apoptosis, cells were seeded, washed, and fixed as above, with the exception that the media was supplemented with the cytokine mix. The slips were then incubated at 37°C with TUNEL reaction mix for 60 min (Roche Diagnostics, Germany), and mounted onto microscope slides. To assess receptor specificity, co‐incubation of PP peptides with the well characterized NPY4R antagonist, (S)‐VU0637120,[24] at 10^−5 M was employed for beta‐cell proliferation experiments, conducted as detailed above. All slides were viewed using a fluorescent microscope (Olympus System Microscope, model BX51; Southend‐on‐Sea, UK) and photographed by DP70 camera adapter system. Proliferation/TUNEL positive frequency was determined using the cell‐counter function on ImageJ Software and expressed as % of total cells analyzed.

Data set [3] concerns C57BL/6 mice. The data set can be described thus: Glucose‐stimulated plasma insulin in mice. Type of data set: in vivo. As to conditions: n = 6; for glucose‐induced insulin secretion (plasma insulin): peptide 25 nmol/kg with glucose 18 mmol/kg i.p., versus glucose control. The procedure: as §1, with “bw). […] Blood glucose was measured immediately using a hand‐held Ascencia Contour blood glucose meter (Bayer Healthcare, Newbury, Berkshire, UK). For plasma insulin, blood was collected in chilled fluoride/heparin‐coated microcentrifuge tubes (Sarstedt, Numbrecht, Germany) and centrifuged using a Beckman microcentrifuge (Beckman Instruments, Galway, Ireland) for 10 min at 12,000 rpm. Plasma was separated and stored at −20°C, until determination of plasma insulin by radioimmunoassay.[23]” for “bw).”

The next data set has as its system T1, DPP-4.
T1 construct: purchased Sigma-Aldrich
The data set is described as follows: In vitro DPP‐4 degradation. Type of data set: in vitro ADME, human. As to conditions: purified human DPP-4 enzyme; peptide 50 μg with purified human DPP‐4 (5 μL, 0.01 U/L), 37°C, 8 h; stopped with 10% (v/v) trifluoroacetic acid; rp‐HPLC C‐18, UV 214 nm; peaks by MALDI‐MS; read-out: % intact peptide after 8 h DPP‐4 incubation. The procedure: PP peptides (50 μg) were incubated at 37°C for 0–8 h with 5 μL of purified human DPP‐4 enzyme (0.01 U/L, Sigma‐Aldrich, Gillingham, UK). Degradation reactions were terminated via the addition of 10 μL 10% (v/v) trifluoroacetic acid/water solution. Reaction mixes were separated by reverse phase rp‐HPLC using a Phenomenex C‐18 analytical column (250 × 4.6 mm^2) with UV absorbance detection at 214 nm (ThermoQuest SpectraSystem UV2000 detector). HPLC peaks of interest were collected and analyzed by MALDI‐TOF MS on a Perseptive Biosystems Voyager‐DE Biospectrometry (Hertfordshire, UK).

For data set [4], the system named is C57BL/6 mice. The data set is described as follows: Glucose tolerance in mice. It counts as in vivo. As to conditions: exendin‐4 0.25 nmol/kg or CCK‐8 25 nmol/kg with glucose 18 mmol/kg i.p., versus glucose control; n = 6. On the procedure:
as §1, with “bw). […] Blood glucose was measured immediately using a hand‐held Ascencia Contour blood glucose meter (Bayer Healthcare, Newbury, Berkshire, UK). […]” for “bw).”

Data set [5] concerns BRIN‐BD11 beta‐cells. The data set is described as follows: Protection against cytokine‐induced beta‐cell apoptosis (TUNEL). As to conditions: peptides 10^−8 and 10^−6 M, cytokine cocktail IL‐1β 100 U/mL, IFNγ 20 U/mL, TNFα 200 U/mL, n = 3. It counts as cell-based. On the procedure: as §2, with “The slips were then incubated at 37°C with TUNEL reaction mix for 60 min (Roche Diagnostics, Germany), and mounted onto microscope slides. To assess receptor specificity, co‐incubation of PP peptides with the well characterized NPY4R antagonist, (S)‐VU0637120,[24] at 10^−5 M was employed for beta‐cell proliferation experiments, conducted as detailed above. All slides were viewed using a fluorescent microscope (Olympus System Microscope, model BX51; Southend‐on‐Sea, UK) and photographed by DP70 camera adapter system.” left out

Starred links: 1 amine or outer side, 2 acyl side, 3 side chain; linkers in the order of their positions; H or OH if unused. Residues, ends and D or L forms follow the SMILES beside them. Groups on a side chain read outwards from the residue. No end group written: not given here. *: point of attachment. γGlu = O=C(O)[C@H](CCC(=O)[*:2])N[*:1]; Palmitoyl = CCCCCCCCCCCCCCCC(=O)*

Take `CCCCCCCCCCCCCCCC(=O)N[C@@H](CCC(=O)NCCCC[C@H](NC(=O)[C@H](C)NC(=O)[C@H](CC(N)=O)NC(=O)[C@H](CC(=O)O)NC(=O)CNC(=O)[C@@H]1CCCN1C(=O)[C@H](Cc1ccc(O)cc1)NC(=O)[C@@H](NC(=O)[C@@H]1CCCN1C(=O)[C@H](CCC(=O)O)NC(=O)[C@H](CC(C)C)NC(=O)[C@@H]1CCCN1C(=O)[C@H](C)N)C(C)C)C(=O)N1CCC[C@H]1C(=O)N[C@@H](CCC(=O)O)C(=O)N[C@@H](CCC(N)=O)C(=O)N[C@@H](CCSC)C(=O)N[C@@H](C)C(=O)N[C@@H](CCC(N)=O)C(=O)N[C@@H](Cc1ccc(O)cc1)C(=O)N[C@@H](C)C(=O)N[C@@H](C)C(=O)N[C@@H](CC(=O)O)C(=O)N[C@@H](CC(C)C)C(=O)N[C@@H](CCCNC(=N)N)C(=O)N[C@@H](CCCNC(=N)N)C(=O)N[C@@H](Cc1ccc(O)cc1)C(=O)N[C@H](C(=O)N[C@@H](CC(N)=O)C(=O)N[C@@H](CCSC)C(=O)N[C@@H](CC(C)C)C(=O)N[C@H](C(=O)N[C@@H](CCCNC(=N)N)C(=O)N1CCC[C@H]1C(=O)N[C@@H](CCCNC(=N)N)C(=O)N[C@@H](Cc1ccc(O)cc1)C(N)=O)[C@@H](C)O)[C@@H](C)CC)C(=O)O` [[K^13Pal]PP] (H-APLEPVYPGDNAK([γGlu-Palmitoyl])PEQMAQYAADLRRYINMLTRPRY-NH2; N-terminus assumed): the “food intake in combination with exendin‐4” value in the data set on C57BL/6 mice [1] (PP peptide 25 nmol/kg with exendin‐4 0.25 nmol/kg i.p., fasted mice, n = 6) is on record as “additive appetite suppressive actions”. Also, the “food intake in overnight fasted mice, summary in discussion” value in the data set with C57BL/6 mice [1] (i.p., overnight fasted mice) was “retained impressive effects to restrict food intake”. In the data set on BRIN‐BD11 beta‐cells [2] (peptide 10^−8 M), the “BRIN‐BD11 cell proliferation” value is given as “augmented”.
With “(N‐Pal)APLEPVYPGDNATPEQMAQYAADLRRYINMLTRPR‐NH2 [[N‐Pal]PP, PP analog with C‐16 palmitate via γ‐glutamyl spacer at the N‐terminal amino group]”, in the data set with C57BL/6 mice [3], the “glucose‐induced insulin secretion (plasma insulin)” value is “slightly decreasing (p = <0.05 to 0.01)”. The “cumulative food intake (appetite suppression)” value in the data set on C57BL/6 mice [1] (200 nmol/kg i.p., overnight fasted mice, later observation points, versus saline, n = 6) is recorded as “mild inhibitory (p < 0.05) effect”.
Take `CC[C@H](C)[C@H](NC(=O)[C@H](Cc1ccc(O)cc1)NC(=O)[C@H](CCCNC(=N)N)NC(=O)[C@H](CCCNC(=N)N)NC(=O)[C@H](CC(C)C)NC(=O)[C@H](CC(=O)O)NC(=O)[C@H](C)NC(=O)[C@H](C)NC(=O)[C@H](Cc1ccc(O)cc1)NC(=O)[C@H](CCC(N)=O)NC(=O)[C@H](C)NC(=O)[C@H](CCSC)NC(=O)[C@H](CCC(N)=O)NC(=O)[C@H](CCC(=O)O)NC(=O)[C@@H]1CCCN1C(=O)[C@@H](NC(=O)[C@H](C)NC(=O)[C@H](CC(N)=O)NC(=O)[C@H](CC(=O)O)NC(=O)CNC(=O)[C@@H]1CCCN1C(=O)[C@H](Cc1ccc(O)cc1)NC(=O)[C@@H](NC(=O)[C@@H]1CCCN1C(=O)[C@H](CCC(=O)O)NC(=O)[C@@H]1CCCN1C(=O)[C@@H]1CCCN1C(=O)[C@H](C)N)C(C)C)[C@@H](C)O)C(=O)N[C@@H](CC(N)=O)C(=O)N[C@@H](CCSC)C(=O)N[C@@H](CC(C)C)C(=O)N[C@H](C(=O)N[C@@H](CCCNC(=N)N)C(=O)N1CCC[C@H]1C(=O)N[C@@H](CCCNC(=N)N)C(=O)N[C@@H](Cc1ccc(O)cc1)C(N)=O)[C@@H](C)O` [[P^3]PP]: the remaining at 8 h with DPP-4 was more than 99%.
With “CCK‐8: used for cholecystokinin (CCK) receptor activation in combination studies (DYMGWMDF; ends and bridges not checked; UniProt P06307 96-103, looked up)”, in the data set with C57BL/6 mice [4], the “glucose disposal, exendin‐4 or CCK‐8” value was “benefits”. The “insulinotropic action, exendin‐4 or CCK‐8” value in the data set on C57BL/6 mice [3] (exendin‐4 0.25 nmol/kg or CCK‐8 25 nmol/kg with glucose 18 mmol/kg i.p.) is reported as “significant insulinotropic actions”. Further, in the data set with C57BL/6 mice [1] (CCK‐8 25 nmol/kg i.p., early observation points, versus saline, n = 6), the “food intake (appetite suppression), CCK‐8 alone” value was “impressive effects on appetite suppression (p < 0.001)”.
For the compound “(N‐Pal)APPEPVYPGDNATPEQMAQYAADLRRYINMLTRPR‐NH2 [[N‐Pal,P^3]PP, PP analog with Pro^3 and N‐terminal C‐16 palmitate via γ‐glutamyl spacer]”, in the data set on C57BL/6 mice [3], the “glucose‐induced insulin secretion (plasma insulin)” value is listed as “slightly decreasing (p = <0.05 to 0.01)”. In addition, the “cumulative food intake (appetite suppression)” value in the data set on C57BL/6 mice [1] (all doses employed (25, 75, 200 nmol/kg i.p.), overnight fasted mice, n = 6) was “lacked bioactivity”.
Consider “glucagon‐like peptide‐1 (HAEGTFTSDVSSYLEGQAAKEFIAWLVKGR; ends and bridges not checked; UniProt P01275 98-127, looked up) [GLP‐1, positive control in proliferation and apoptosis tests]”, for which the “BRIN‐BD11 cell proliferation” value with BRIN‐BD11 beta‐cells [2] (peptide 10^−6 M) and in the data set with BRIN‐BD11 beta‐cells [2] (peptide 10^−8 M) was “significantly (p < 0.001) enhanced” each time. In addition, the “protection against cytokine‐induced beta‐cell apoptosis” value in the data set with BRIN‐BD11 beta‐cells [5] was “significantly (p = <0.01 to 0.001) protected against cell death”.
